According to patent US20240115654A1, “INTRAVENOUS ADMINISTRATION OF ENGINEERED ANTIMICROBIAL AMPHIPHILIC PEPTIDES” (priority 2021, published 2024):
Like-named read-outs stand apart in the source and are kept apart here. Peptide text beside a SMILES is read from it.

From the text: All subjects who met eligibility criteria were confined to the clinical research unit from […] through Day 3. At admission, physical examination, vital signs, 12 lead ECG and weight were obtained, medical and medication history were updated if necessary, safety blood tests (hematology and chemistry), urinalysis, urine drug screen and an alcohol breath test were repeated and a urine pregnancy test was done for women of childbearing potential.
At each dose level, there were 2 sentinel subjects, (1 active, 1 placebo), who were dosed at least 48 hours in advance of the other subjects in their respective group. Following review of safety data, including physical examination, vital signs, and review of adverse events from the first 2 subjects, enrolment in the cohort continued.
A 12-lead ECG was performed on Day 1, within 60 minutes of infusion start (in triplicate), mid-way through the infusion, at the completion of the infusion, 30 minutes after completion of the infusion and at various timepoints following the end of the infusion.
Vital signs were recorded within 60 minutes pre-dose, at the mid-point of the infusion and post dose vitals were assessed at completion of the infusion, 0.5, 1, 2, 3, 4, 6, 9, 12, 24 and 48 hours post dose, after at least 3 minutes of rest in supine position.
Subjects returned to the study center 7 days after dosing, for the termination visit. A full physical examination, vital signs and weight were obtained, concomitant medications were updated if necessary, safety blood specimens (haematology and chemistry, PT and aPTT) and urine were collected for urinalysis and urine drug screening. A serum pregnancy test was done for women of childbearing potential and a 12-lead ECG was performed.
In this study dose limiting toxicity (DLT) was defined as any drug related ≥Grade 3 AEs occurring despite optimal therapeutic interventions (which included but were not limited to allergic/hypersensitivity reactions, dermatological reactions/infusion site reactions, haematological toxicities such as neutropenia, thrombocytopenia and anaemia and clinical chemistry abnormalities) experienced up to Day 7 (Termination Visit).
(§1) All subjects who received any amount of study drug were included in the safety analysis (Safety population).
The study was a double blinded, randomized, placebo-controlled study. The placebo administered was 0.9% sodium chloride.
On Day 1 (day of dosing), subjects were randomly assigned either peptide IV or Placebo IV. At each dose level, there were 2 sentinel subjects, (1 active, 1 placebo), who were dosed at least 48 hours in advance of the other subjects in their respective group. Following review of safety data, including physical examination, vital signs, and review of adverse events from the first 2 subjects, enrolment in the cohort continued. All subjects who met eligibility criteria were confined to the clinical research unit from Day −2 through Day 3. At admission, physical examination, vital signs, 12 lead ECG and weight were obtained, medical and medication history were updated if necessary, safety blood tests (hematology and chemistry), urinalysis, urine drug screen and an alcohol breath test were repeated and a urine pregnancy test was done for women of childbearing potential.
as §1

[1] = Cohort 4: 0.5 mg/kg IV 2-hr infusion (N = 6)
[2] = Cohort 4: 0.5 mg/kg IV 2 hr infusion, subject 001-S086
[3] = Cohort 4: 0.5 mg/kg IV 2 hr infusion, subject 001-S093
[4] = Cohort 4: 0.5 mg/kg IV 2 hr infusion, subject 001-S094
[5] = Cohort 5 1 mg/kg IV 4-hr infusion, participant 001-S119
[6] = Cohort 5 1 mg/kg IV 4-hr infusion, participant 001-S127
[7] = Cohort 5: 1 mg/kg IV 4-hr infusion (N = 6)

CC(C)[C@H](NC(=O)[C@H](Cc1c[nH]c2ccccc12)NC(=O)[C@H](CCCNC(=N)N)NC(=O)[C@H](CCCNC(=N)N)NC(=O)[C@@H](NC(=O)[C@@H](NC(=O)[C@H](CCCNC(=N)N)NC(=O)[C@@H](NC(=O)[C@@H](NC(=O)[C@H](CCCNC(=N)N)NC(=O)[C@H](CCCNC(=N)N)NC(=O)[C@H](Cc1c[nH]c2ccccc12)NC(=O)[C@@H](NC(=O)[C@H](CCCNC(=N)N)NC(=O)[C@H](CCCNC(=N)N)NC(=O)[C@@H](NC(=O)[C@H](CCCNC(=N)N)NC(=O)[C@H](CCCNC(=N)N)NC(=O)[C@@H](NC(=O)[C@H](Cc1c[nH]c2ccccc12)NC(=O)[C@H](CCCNC(=N)N)NC(=O)[C@@H](N)CCCNC(=N)N)C(C)C)C(C)C)C(C)C)C(C)C)C(C)C)C(C)C)C(C)C)C(=O)N[C@@H](CCCNC(=N)N)C(=O)N[C@@H](CCCNC(=N)N)C(N)=O [SEQ ID NO: 1] (H-RRWVRRVRRVWRRVVRVVRRWVRR-NH2)
Treatment-related TEAE: Skin and Subcutaneous Tissue Disorders, participants n (%) [1]: 0 | Treatment-related TEAE: Thrombocytopenia, participants n (%) [1]: 0 | Treatment-related TEAE: Vascular Disorders, participants n (%) [1]: 0 | Treatment-related TEAE: Vessel puncture site erythema, participants n (%) [1]: 0 | Treatment-related TEAE: Vessel puncture site pain, occurrences m [1]: 1 | Treatment-related TEAE: Vessel puncture site pain, participants n (%) [1]: 1 (16.7%) | Treatment-related TEAE: Vomiting, participants n (%) [1]: 0 | Infusion related reaction: End Date/Time [2]: End of Study | Infusion related reaction: Severity Grade [2]: Grade 1 | Infusion related reaction: Start Date/Time [2]: Day 1/1 hour | Infusion related reaction: Event (Cohort 4: 0.5 mg/kg IV 2 hr infusion, subject 001-S086, 0.5 mg/kg): Myalgia | Infusion related reaction: End Date/Time [3]: Day 1/12 hours | Infusion related reaction: Event [3]: Discomfort at right | Infusion related reaction: Severity Grade [3]: Grade 1 | Infusion related reaction: End Date/Time [4]: Day 1/2 hours | Infusion related reaction: Event [4]: Right arm cannula | Infusion related reaction: Severity Grade [4]: Grade 1 | Severity of event: Localized IRR, Right arm (Cohort 5 1 mg/kg IV 4-hr infusion, participant 001-S113): Grade 1 | Severity of event: Localized IRR, Left arm (Cohort 5 1 mg/kg IV 4-hr infusion, participant 001-S117): Grade 1 | Severity of event: Lightheadedness [5]: Grade 1 | Severity of event: Localized IRR, Left arm [5]: Grade 1 | Severity of event: Pain at dosing site, Left arm (Cohort 5 1 mg/kg IV 4-hr infusion, participant 001-S120): Grade 1 | Severity of event: Localized IRR, Left arm (Cohort 5 1 mg/kg IV 4-hr infusion, participant 001-S122): Grade 1 | Severity of event: IRR, Right arm; pain in region of right biceps muscle [6]: Grade 1 | Severity of event: Right-sided headache [6]: Grade 1 | IRRs, events (Cohort 5, 1 mg/kg over 4 hours in 250 mL, 6 participants, all Grade 1): 9 | Number of Participants Reporting at least: Onc TEAE Leading to Study Withdrawal, n (%) [7]: 0 | Number of Participants Reporting at least: One Dose-Limiting Toxicity, n (%) [7]: 0 | Number of Participants Reporting at least: One Related TEAE, n (%) [7]: 6 (100%) | Number of Participants Reporting at least: One Serious TEAE, n (%) [7]: 0 | Number of Participants Reporting at least: One TEAE Leading to Study Drug Discontinuation, n (%) [7]: 0 | Number of Participants Reporting at least: One TEAE with Common Terminology Criteria for Adverse Events (CTCAE) Toxicity ≥ Grade 3, n (%) [7]: 0 | Number of Participants Reporting at least: One TEAE, n (%) [7]: 6 (100%) | One Related TEAE, m [7]: 11 | One TEAE, m [7]: 20 | Participants With At Least 1 TEAE, n (%) [7]: 6 (100%) | Participants With At Least 1 TEAE, occurrences m [7]: 20 | Participants With At Least 1 Treatment-Related TEAE, n (%) [7]: 6 (100%) | Participants With At Least 1 Treatment-Related TEAE, occurrences m [7]: 11 | TEAE Severity Grade 1, m [7]: 19 | TEAE Severity Grade 1, n (%) [7]: 6 (100%) | TEAE Severity Grade 2, m [7]: 1 | TEAE Severity Grade 2, n (%) [7]: 1 (16.7%) | TEAE by system organ class: Blood and Lymphatic System Disorders, participants n (%) [7]: 0 | TEAE by system organ class: Gastrointestinal Disorders, occurrences m [7]: 1 | TEAE by system organ class: Gastrointestinal Disorders, participants n (%) [7]: 1 (16.7%) | TEAE by system organ class: General Disorders and Administration Site Conditions, occurrences m [7]: 9 | TEAE by system organ class: General Disorders and Administration Site Conditions, participants n (%) [7]: 6 (100%) | TEAE by system organ class: Infections and Infestations, participants n (%) [7]: 0 | TEAE by system organ class: Injury, Poisoning, and Procedural Complications, occurrences m [7]: 5 | TEAE by system organ class: Injury, Poisoning, and Procedural Complications, participants n (%) [7]: 4 (66.7%) | TEAE by system organ class: Musculoskeletal and Connective Tissue Disorders, occurrences m [7]: 1 | TEAE by system organ class: Musculoskeletal and Connective Tissue Disorders, participants n (%) [7]: 1 (16.7%) | TEAE by system organ class: Nervous System Disorders, occurrences m [7]: 2 | TEAE by system organ class: Nervous System Disorders, participants n (%) [7]: 2 (33.3%) | TEAE by system organ class: Respiratory, Thoracic, and Mediastinal disorders, participants n (%) [7]: 0 | TEAE by system organ class: Skin and Subcutaneous Tissue Disorders, occurrences m [7]: 2 | TEAE by system organ class: Skin and Subcutaneous Tissue Disorders, participants n (%) [7]: 2 (33.3%) | TEAE by system organ class: Vascular Disorders, participants n (%) [7]: 0 | TEAE severity Grade 1, occurrences m [7]: 19 | TEAE severity Grade 1, participants n (%) [7]: 6 (100%) | TEAE severity Grade 2, occurrences m [7]: 1 | TEAE severity Grade 2, participants n (%) [7]: 1 (16.7%) | TEAE severity Grade 3, participants n (%) [7]: 0 | TEAE severity Grade 4, participants n (%) [7]: 0 | TEAE severity Grade 5, participants n (%) [7]: 0 | Treatment-related TEAE: Abdominal distension, participants n (%) [7]: 0
